In brackets after ≈: the same amount, converted by molar mass. Like-named read-outs stand apart in the source and are kept apart here.
Legend:
[1] = test system: Enterobacter cloacae LSI-2943; assay: MIC panel (Laboratory Specialists, Inc.), E. cloacae; type: cell-based; details: LSI2943, Cmpd. 6, CLSI broth microdilution
[2] = test system: S. aureus strain isolated from a cystic fibrosis patient; assay: MIC, CLSI broth microdilution, CF isolate; type: cell-based; details: Staphylococcus aureus; CLSI broth microdilution; read-out: MIC CF isolate
[3] = test system: Acinetobacter baumannii LSI-2957; assay: MIC panel (Laboratory Specialists, Inc.), A. baumannii; type: cell-based; details: LSI2957, Cmpd. 6, CLSI broth microdilution
hKCNQ1/hminK = target: T1, hKCNQ1/hminK (Homo sapiens, UniProt P51787); assay: KCNQ1/hminK QPatch CiPA assay; type: cell-based; details: mean, duplicate, read-out: % Inhibition KCNQ1 (peak current)
T1 construct: expressed in transfected cells
Excerpt: (§1) Early drug discovery programs commonly assess hERG inhibition as the only indicator of potential cardiovascular safety concerns. Researchers have recently recommended a more rigorous evaluation of multiple cardiac ion channels to provide a more comprehensive cardiovascular risk assessment (Fermini, B., et al., A New Perspective in the Field of Cardiac Safety Testing through the Comprehensive In Vitro Proarrhythmia Assay Paradigm. J. Biomolec. Screening 2016, 21, 1-11). Given the promising initial results for 6, further evaluation was undertaken (in duplicate) in a Comprehensive in vitro Proarrhythmia Assay (CiPA) eight assay panel run on the QPatch HT (Sophion, Denmark) automated patch clamp system at three concentrations (3, 30, and 100 μM). All data were filtered for seal quality, seal drop, and current amplitude. A stock solution of the test compound at 30 mM concentration was prepared in DMSO.
The parameters measured were the maximum outward current evoked on stepping to 60 mV from the test pulse. The peak current amplitude was calculated before and after compound addition and the amount of block was assessed by dividing the Test compound current amplitude by the Control current amplitude. Control is the mean hKCNQ1/hminK current amplitude collected 15 seconds at the end of the control; Test Compound is the mean hKCNQ1/hminK current amplitude collected in the presence of test compound at each concentration. The positive control was chromanol 293B.

physchem = type: physicochemical; details: aqueous buffer, kinetic from dmso stock; buffered aqueous solution (pH 7.4)
Method: Test compounds were prepared at 10 mM in 100% DMSO and diluted into aqueous buffer, pH 7.4, to achieve a final test compound concentration of 100 μM with a final DMSO concentration of 1%. Caffeine and tamoxifen were assayed as control compounds. The samples were shaken for 90 minutes at room temperature and then filtered through a 0.4 μm filter plate. Filtrates were collected and analyzed using LC-MS/MS.

[4] = test system: Escherichia coli ATCC 25922; assay: MIC panel (Laboratory Specialists, Inc.), E. coli; type: cell-based; details: ATCC25922, read-out: MIC Escherichia coli ATCC 25922 (n = 2), Cmpd. 6, CLSI broth microdilution
Nav site 2 = assay: Off-target safety panel, Nav site 2; type: binding; details: duplicate
Method: (§2) Potential off-target pharmacology for compound 6 was also evaluated by screening in duplicate against a panel (Bowes, J., et al., Reducing Safety-Related Drug Attrition: The Use of in vitro Pharmacological Profiling. Nat. Rev. Drug Disc. 2012, 11, 909-922) of 44 receptors, enzymes, etc. Of the 44 potential targets, only five were inhibited by >50% at a concentration of 100 μM (Table 7).

hKv4.3/KChIP2 = target: T2, hKv4.3/KChIP2 (Homo sapiens, UniProt Q9UK17); assay: Kv4.3/KChIP2 QPatch CiPA assay; type: cell-based; details: mean, duplicate
T2 construct: expressed in transfected cells
T2 sequence (Q9UK17 1-655): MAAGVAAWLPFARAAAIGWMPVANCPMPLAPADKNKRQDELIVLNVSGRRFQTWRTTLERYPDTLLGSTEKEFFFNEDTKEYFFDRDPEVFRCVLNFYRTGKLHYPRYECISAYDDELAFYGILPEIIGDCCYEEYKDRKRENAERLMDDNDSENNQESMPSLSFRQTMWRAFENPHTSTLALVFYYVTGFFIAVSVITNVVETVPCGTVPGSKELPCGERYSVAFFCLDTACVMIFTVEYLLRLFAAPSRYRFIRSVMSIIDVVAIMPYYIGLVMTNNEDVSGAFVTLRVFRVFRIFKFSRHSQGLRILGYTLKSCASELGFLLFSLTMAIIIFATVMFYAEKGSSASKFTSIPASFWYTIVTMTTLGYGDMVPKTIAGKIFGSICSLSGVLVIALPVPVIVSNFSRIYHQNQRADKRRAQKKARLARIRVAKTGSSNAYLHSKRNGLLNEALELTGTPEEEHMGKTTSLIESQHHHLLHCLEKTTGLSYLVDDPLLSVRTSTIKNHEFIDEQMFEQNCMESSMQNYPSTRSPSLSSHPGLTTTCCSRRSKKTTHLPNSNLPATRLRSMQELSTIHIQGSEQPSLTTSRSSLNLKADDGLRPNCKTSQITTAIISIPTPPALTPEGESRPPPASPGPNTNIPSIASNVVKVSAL
T2 sequence (Q9NS61 1-270 partner): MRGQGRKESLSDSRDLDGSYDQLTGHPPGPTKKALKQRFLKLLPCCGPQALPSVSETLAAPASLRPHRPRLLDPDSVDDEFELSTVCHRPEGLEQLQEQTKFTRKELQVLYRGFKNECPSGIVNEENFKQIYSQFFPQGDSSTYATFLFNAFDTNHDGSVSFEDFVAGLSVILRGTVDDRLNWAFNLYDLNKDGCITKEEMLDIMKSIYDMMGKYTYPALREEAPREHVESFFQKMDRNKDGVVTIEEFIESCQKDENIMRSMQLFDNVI
Excerpt: as §1
The parameters measured were the maximum outward current evoked on stepping to 40 mV from the test pulse. The peak current amplitude was calculated before and after compound addition and the amount of block was assessed by dividing the Test compound current amplitude by the Control current amplitude. Control is the mean hKv4.3/KChIP2 current amplitude collected 15 seconds at the end of the control; Test Compound is the mean hKv4.3/KChIP2 current amplitude peak and end collected in the presence of test compound at each concentration. The positive control was flecainide.

[5] = test system: Fluoroquinolone-resistant S. aureus (11 strains); assay: MIC90, panel of fluoroquinolone-resistant MRSA isolates; type: cell-based, Staphylococcus aureus
[6] = 100 μM
Method: as §2

Histamine H2 = Histamine H2 (Homo sapiens, UniProt P25021); assay: Off-target safety panel, Histamine H2; type: binding; details: duplicate, read-out: % Inhibition at 100 μM conc., Histamine H2
Chain of Histamine H2 (P25021 whole entry): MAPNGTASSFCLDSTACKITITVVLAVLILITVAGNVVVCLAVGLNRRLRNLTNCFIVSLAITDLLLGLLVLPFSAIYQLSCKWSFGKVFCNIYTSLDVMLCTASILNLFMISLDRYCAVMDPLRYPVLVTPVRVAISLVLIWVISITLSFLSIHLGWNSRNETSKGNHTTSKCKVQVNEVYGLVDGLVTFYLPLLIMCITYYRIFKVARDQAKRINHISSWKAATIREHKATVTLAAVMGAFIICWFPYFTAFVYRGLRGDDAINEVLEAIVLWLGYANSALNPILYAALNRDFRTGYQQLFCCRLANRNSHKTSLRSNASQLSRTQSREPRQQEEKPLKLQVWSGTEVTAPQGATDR
Method: as §2

[7] = read-out: % Inhibition Kv4.3 (end current)
[8] = read-out: % Inhibition Kv4.3 (peak current)

**Q.** Which MIC [1] does the source give for `COc1ccc2ncc(F)c(CC[C@@]3(O)CO[C@@H]4[C@@H](NCc5cc6c(cn5)OCCO6)CO[C@@H]43)c2n1` [Compound 6, (3R, 3aS,6S,6aR)-6-(((2,3-dihydro-[1,4]dioxino[2,36-c]pyridin-7-yl)methyl)amnino)-3-(2-(3-fluoro-6-methoxy-1,5-naphthyridin-4-yl)ethyl)hexahydrofuro[3,2-b]furan-3-ol] here?
**A.** Its MIC is 16 µg/mL (≈ 32.1 µM).

**Q.** And the MIC [2]?
**A.** Its MIC is 2 µg/mL (≈ 4.01 µM).

**Q.** And the MIC [3]?
**A.** The MIC was at most 0.12 µg/mL.

**Q.** And the inhibition at 3 µM (hKCNQ1/hminK; 3 μM)?
**A.** Its inhibition at 3 µM is -2.9%.

**Q.** What about the inhibition at 30 µM (hKCNQ1/hminK; 30 μM) of the same compound?
**A.** The inhibition at 30 µM was 1.5%.

**Q.** And the inhibition at 100 µM (hKCNQ1/hminK; 100 μM)?
**A.** The inhibition at 100 µM was 22.1%.

**Q.** What about the solubility kinetic (physchem) of the same compound?
**A.** Its solubility kinetic is 76.2 µM (≈ 38 µg/mL).

**Q.** And the MIC [4]?
**A.** The MIC was 64 µg/mL (≈ 128 µM).

**Q.** And the “% Inhibition at 100 μM conc., Nav site 2” value (Nav site 2)?
**A.** Its value is 78%.

**Q.** What about the inhibition at 3 µM (hKv4.3/KChIP2; [7]) of the same compound?
**A.** Its inhibition at 3 µM is -4.4%.

**Q.** What about the inhibition at 3 µM (hKv4.3/KChIP2; [8]) of the same compound?
**A.** The inhibition at 3 µM was 11%.

**Q.** And the inhibition at 30 µM (hKv4.3/KChIP2; [7])?
**A.** Its inhibition at 30 µM is -19.6%.

**Q.** And the inhibition at 30 µM (hKv4.3/KChIP2; [8])?
**A.** Its inhibition at 30 µM is 25.1%.

**Q.** And the inhibition at 100 µM (hKv4.3/KChIP2; [7])?
**A.** The inhibition at 100 µM was 7.1%.

**Q.** What about the inhibition at 100 µM (hKv4.3/KChIP2; [8]) of the same compound?
**A.** Its inhibition at 100 µM is 43.6%.

**Q.** And the MIC90 ([5]; Staphylococcus aureus, Cmpd. 6, MIC90)?
**A.** The MIC90 was 2 µg/mL (≈ 4.01 µM).

**Q.** And the “MIC90 better than that of ciprofloxacin” value ([5]; panel of fluoroquinolone-resistant MRSA isolates)?
**A.** Its value is 16 fold.

**Q.** What about the “number of the 44 potential targets inhibited by >50%” value [6] of the same compound?
**A.** The value was “five”.

**Q.** And the inhibition at 100 µM (Histamine H2)?
**A.** Its inhibition at 100 µM is 51%.

From patent US20230097866A1, “BACTERIAL TOPOISOMERASE INHIBITORS DERIVED FROM ISOMANNIDE” (Ohio State Innovation Foundation, priority 2020, published 2023)
